Data set [1] in a line: Calcein AM cytotoxicity assay, NIH3T3 cells. As to conditions: mouse; for CC50 at 72 h: nih3t3 cells. The method, then: (§1) All compound concentrations were examined in duplicates. […] Zero cytotoxicity is a basic prerequisite for the use of these substances in cosmetical applications. To assess the antitumor activity, the toxicity of new derivatives on panels containing cell lines of different histogenic and species origin was tested (Table 5). […] The compounds listed in Table 5 can be divided into 2 groups.
(§2) The first group contains "classical cytokinins" represented by 6-substituted purines (their effects are already known). The second group includes novel 2-fluoro-N6-substituted-9-(2-oxacycloalkyl)-9H-purine-6-amine derivatives. […] Low cytotoxicity (high IC50 value) of the compounds is the basic prerequisite for cosmetic and medical applications. […] Table 5: Cytotoxicity of novel compounds for different normal cell lines tested / IC50 (µmol/L)

Data set [2] is described as follows: Calcein AM cytotoxicity assay, B10A.4 cells. As to conditions: mouse; for CC50 at 72 h: b10a.4 macrophages. The protocol: as §1, §2
Data set [3] in a line: Calcein AM cytotoxicity assay, BJ cells. As to conditions: human; for CC50 at 72 h: bj fibroblasts. The method, then: as §1, §2
Data set [4] deals with excised wheat leaf tips. Nature of the data set: Senescence inhibition on winter wheat leaf segments (chlorophyll retention). Also noted: species or system Triticum aestivum cv. Hereward. As to conditions: for Concentration with highest activity: retention of chlorophyll; for Activity (%) [10^-4mol.l^-1 KTHP = 100%] / Emax: retention of chlorophyll in excised wheat leaf tips, 96 h in the dark, at concentration with highest activity; for Emax: Triticum aestivum, foliar, read-out: Activity (%) [10^-4mol.l^-1 KTHP = 100%]. The method, then: Seeds of winter wheat, Triticum aestivum cv. Hereward, were washed under running water for 24 hours and then sown on vermiculite soaked with the Knop's solution. They were placed in the grow chamber at 25 °C with a 16/8 h light period at 50 μmol.m^-2.s^-1. After 7 days, the first leaf was fully developed and the second leaf had started to grow. A tip section of the first leaf, approximately 35 mm long, was removed from 5 seedlings and trimmed slightly to a combined weight of 100 mg. The basal ends of the five leaf tips were placed in the wells of a microtiter polystyrene plate containing 150 μl of the solution of the tested compound each. The entire plate was inserted into a plastic box lined with paper tissues soaked with distilled water to prevent leaf sections from drying out. […] The absorbance of the extract was recorded at 665 nm. In addition, chlorophyll extracts from fresh leaves and leaf tips incubated in deionised water were measured. From the obtained data, the concetration with the highest activity was selected for each compound tested. Relative activity of the compound at this concentration was calculated (Table 7). […] The values shown are means of five replicates and the whole experiment was repeated twice. The compounds to be tested were dissolved in dimethylsulfoxide (DMSO) and the solution brought up to 10^-3 M with distilled water. […] The compounds listed in Table 7 can be divided into 2 groups. The first group contains "classical 6,9-disubstituted purines (KTHP as a control)" known in prior art. […] Table 9: […]

[5] abbreviates: Cytotoxicity IC50, B10A.4, first column headed B10A.4.
The mark [6] stands for this setting: Cytotoxicity IC50, B10A.4, second column headed B10A.4.

Turning to `COc1ccc(CNc2nc(F)nc3c2ncn3C2CCCO2)c(OC)c1` (stereo not drawn) [Compound 36], the CC50 at 72 h in data set [1], in data set [2] (setting [5]) and in data set [3] was greater than 167 µM each time. In addition, the “Concentration with highest activity” value in data set [4] is 10^-4 mol.l^-1. Moreover, the “Activity (%) [10^-4mol.l^-1 KTHP = 100%]” value in data set [4] was 125.6 (± 15) %.
For `C/C(=C\CNc1nc(F)nc2c1ncn2C1CCCCO1)CO` (stereo not drawn) [Compound 70], the CC50 at 72 h in data set [1], in data set [2] (setting [5]) and in data set [3] was greater than 167 µM in each case. Also, the “Concentration with highest activity” value in data set [4] is reported as 10^-4 mol.l^-1. Further, in data set [4], the “Activity (%) [10^-4mol.l^-1 KTHP = 100%]” value was 126 (± 12) %.
For the compound `COc1cc(CNc2nc(F)nc3c2ncn3C2CCCO2)cc(OC)c1O` (stereo not drawn) [Compound 41], the 50% cytotoxic concentration (CC50) at 72 h in data set [1], in data set [2] (setting [5]) and in data set [3] was greater than 167 µM throughout. The “Concentration with highest activity” value in data set [4] is 10^-4 mol.l^-1. Besides, in data set [4], the “Activity (%) [10^-4mol.l^-1 KTHP = 100%]” value is listed as 42 (± 13) %.
Turning to `COc1cc(O)cc(OC)c1CNc1nc(F)nc2c1ncn2C1CCCO1` (stereo not drawn) [Compound 42], the 50% cytotoxic concentration (CC50) at 72 h in data set [1], in data set [2] (setting [5]) and in data set [3] was greater than 167 µM in each case. The “Concentration with highest activity” value in data set [4] was 10^-4 mol.l^-1. In addition, in data set [4], the “Activity (%) [10^-4mol.l^-1 KTHP = 100%]” value is recorded as 22 (± 4) %.
As for `COc1ccc(CNc2nc(F)nc3c2ncn3C2CCCO2)cc1OC` (stereo not drawn) [Compound 39], the CC50 at 72 h in data set [1], in data set [2] (setting [5]) and in data set [3] was greater than 167 µM throughout. Moreover, the “Concentration with highest activity” value in data set [4] is given as 10^-4 mol.l^-1. Further, in data set [4], the “Activity (%) [10^-4mol.l^-1 KTHP = 100%]” value was 126 (± 21) %.
On to `Cc1cc(O)cc(CNc2nc(F)nc3c2ncn3C2CCCO2)c1` (stereo not drawn) [Compound 52], for which the CC50 at 72 h in data set [1], in data set [2] (setting [5]) and in data set [3] was greater than 167 µM each time. Also, in data set [4], the “Concentration with highest activity” value is on record as 10^-4 mol.l^-1. The “Activity (%) [10^-4mol.l^-1 KTHP = 100%]” value in data set [4] is 23 (± 1) %.
In the case of `Oc1ccccc1CNc1ncnc2nc[nH]c12` [ortho-topolin, reference compound], the cytotoxic concentration (CC50) at 72 h in data set [1] was 94.1 µM; in data set [2] (setting [5]), 87.5 µM; in data set [2] (setting [6]), 94.3 µM; in data set [3], 108 µM.
In the case of `COc1cccc(OC)c1CNc1nc(F)nc2c1ncn2C1CCCO1` (stereo not drawn) [Compound 38], the CC50 at 72 h in data set [1], in data set [2] (setting [5]) and in data set [3] was greater than 167 µM in each case. Further, the “Concentration with highest activity” value in data set [4] is reported as 10^-4 mol.l^-1. Moreover, the “Activity (%) [10^-4mol.l^-1 KTHP = 100%]” value in data set [4] was 128 (± 16) %.
For the compound `CC(CO)CCNc1nc(F)nc2c1ncn2C1CCCO1` (stereo not drawn) [Compound 11], the values for the CC50 at 72 h in data set [1], in data set [2] (setting [5]) and in data set [3] were 139 µM, 146 µM and greater than 167 µM, respectively. In addition, the “Concentration with highest activity” value in data set [4] is recorded as 10^-4 mol.l^-1. The “Activity (%) [10^-4mol.l^-1 KTHP = 100%]” value in data set [4] was 125 (± 12) %.
Taken in the same sequence, the figures for `Cc1cc(CNc2nc(F)nc3c2ncn3C2CCCO2)ccc1O` (stereo not drawn) [Compound 51] were greater than 167 µM, greater than 167 µM, greater than 167 µM, 10^-4 mol.l^-1 and 19 (± 2) %.
Taken in the same sequence, the figures for `Cc1ccc(O)c(CNc2nc(F)nc3c2ncn3C2CCCO2)c1` (stereo not drawn) [Compound 50] were greater than 167 µM, greater than 167 µM, greater than 167 µM, 10^-4 mol.l^-1 and 82 (± 12) %.
As for `Oc1ccc(CNc2nc(F)nc3c2ncn3C2CCCO2)cc1O` (stereo not drawn) [Compound 33], the CC50 at 72 h in data set [1], in data set [2] (setting [5]) and in data set [3] was greater than 167 µM throughout. Besides, the “Concentration with highest activity” value in data set [4] is 10^-4 mol.l^-1. Further, the “Activity (%) [10^-4mol.l^-1 KTHP = 100%]” value in data set [4] was 71.3 (± 17) %.
Consider `COc1cc(CNc2nc(F)nc3c2ncn3C2CCCO2)cc(OC)c1` (stereo not drawn) [Compound 40], for which the CC50 at 72 h in data set [1], in data set [2] (setting [5]) and in data set [3] was greater than 167 µM throughout. For the same compound, the “Concentration with highest activity” value in data set [4] is 10^-4 mol.l^-1. Further, in data set [4], the “Activity (%) [10^-4mol.l^-1 KTHP = 100%]” value is 163 (± 8) %.
Take `Oc1ccc(CNc2nc(F)nc3c2ncn3C2CCCO2)cc1` (stereo not drawn) [Compound 16, 2-Fluoro-6-[(4-hydroxybenzyl)amino]-9-(tetrahydrofuran-2-yl)-9H-purine]: the half-inhibitory concentration (IC50) at 72 h in data set [1], in data set [2] (setting [5]) and in data set [3] was greater than 167 µM throughout. Moreover, the Emax in data set [4] turned out to be 110%.
Take `Cc1ccc(CNc2nc(F)nc3c2ncn3C2CCCCO2)o1` (stereo not drawn) [Compound 60, 2-Fluoro-6-[(5-methylfurfuryl)amino]-9-(tetrahydro-2H-pyran-2-yl)-9H-purine]: the IC50 at 72 h in data set [1], in data set [2] (setting [5]) and in data set [3] was greater than 167 µM each time. For the same compound, in data set [4], the Emax is 123%.
Consider `COc1ccc(CNc2nc(F)nc3c2ncn3C2CCCO2)c(O)c1` (stereo not drawn) [Compound 21], for which the figures for the cytotoxic concentration (CC50) at 72 h in data set [1], in data set [2] (setting [5]) and in data set [3] were 158 µM, 147 µM and 132 µM, respectively. Also, in data set [4], the “Concentration with highest activity” value is on record as 10^-4 mol.l^-1. Besides, in data set [4], the “Activity (%) [10^-4mol.l^-1 KTHP = 100%]” value is given as 35 (± 9.5) %.
Taken in the same sequence, the figures for `COc1ccc(OC)c(CNc2nc(F)nc3c2ncn3C2CCCO2)c1` (stereo not drawn) [Compound 37] were greater than 167 µM, greater than 167 µM, greater than 167 µM, 10^-4 mol.l^-1 and 121.8 (± 17) %.
For the compound `c1coc(CNc2ncnc3c2ncn3C2CCCCO2)c1` (stereo not drawn) [KTHP, 6-furfurylamino-9-tetrahydropyranylpurine, reference compound], in data set [4], the “Concentration with highest activity” value is given as 10^-4 mol.l^-1 and the “Activity (%) [10^-4mol.l^-1 KTHP = 100%]” value is reported as 100 (± 8.6) %.
On to `CC(C)=CCNc1nc(F)nc2c1ncn2C1CCCCO1` (stereo not drawn) [Compound 69], for which the 50% cytotoxic concentration (CC50) at 72 h in data set [1] was 142 µM; in data set [2] (setting [5]), 146 µM; in data set [3] it was 153 µM. Further, the “Concentration with highest activity” value in data set [4] is listed as 10^-4 mol.l^-1. Also, the “Activity (%) [10^-4mol.l^-1 KTHP = 100%]” value in data set [4] is listed as 108 (± 13) %.
Regarding `Oc1ccc(CNc2nc(F)nc3c2ncn3C2CCCCO2)cc1` (stereo not drawn) [Compound 66, 2-Fluoro-6-[(4-hydroxybenzyl)amino]-9-(tetrahydro-2H-pyran-2-yl)-9H-purine], the IC50 at 72 h in data set [1], in data set [2] (setting [5]) and in data set [3] was greater than 167 µM in each case. Moreover, in data set [4], the Emax was determined as 74%.
As for `COc1cc(O)cc(CNc2nc(F)nc3c2ncn3C2CCCO2)c1` (stereo not drawn) [Compound 44], the CC50 at 72 h in data set [1], in data set [2] (setting [5]) and in data set [3] was greater than 167 µM each time. Also, the “Concentration with highest activity” value in data set [4] is recorded as 10^-4 mol.l^-1. Also, the “Activity (%) [10^-4mol.l^-1 KTHP = 100%]” value in data set [4] is 47 (± 11) %.
Turning to `Nc1ncnc2nc[nH]c12` [Adenine, reference compound], the IC50 at 72 h in data set [1], in data set [2] (setting [5]), in data set [2] (setting [6]) and in data set [3] was greater than 167 µM throughout.
With `Oc1ccoc1CNc1nc(F)nc2c1ncn2C1CCCO1` (stereo not drawn) [Compound 53], the half-maximal cytotoxic concentration (CC50) at 72 h in data set [1], in data set [2] (setting [5]) and in data set [3] was greater than 167 µM each time. In addition, the “Concentration with highest activity” value in data set [4] was 10^-4 mol.l^-1. In addition, in data set [4], the “Activity (%) [10^-4mol.l^-1 KTHP = 100%]” value is 45 (± 13) %.
Consider `Cc1cccc(CNc2nc(F)nc3c2ncn3C2CCCO2)c1O` (stereo not drawn) [Compound 49], for which the half-maximal cytotoxic concentration (CC50) at 72 h was greater than 167 µM in data set [1], 156 µM in data set [2] (setting [5]) and 161 µM in data set [3]. For the same compound, the “Concentration with highest activity” value in data set [4] is reported as 10^-4 mol.l^-1. Also, in data set [4], the “Activity (%) [10^-4mol.l^-1 KTHP = 100%]” value is listed as 16.4 (± 3) %.
For `CC(C)=CCNc1ncnc2nc[nH]c12` [isopentenyladenine, reference compound], the 50% cytotoxic concentration (CC50) at 72 h is 124 µM in data set [1], greater than 167 µM in data set [2] (setting [5]), 147 µM in data set [2] (setting [6]) and 134 µM in data set [3].
For the compound `c1coc(CNc2ncnc3[nH]cnc23)c1` [Kinetin, reference compound], the half-inhibitory concentration (IC50) at 72 h in data set [1] is 133 µM; in data set [2] (setting [5]), greater than 167 µM; in data set [2] (setting [6]) it was 164 µM; in data set [3] it was 148 µM.

A word on the CC50: it is the concentration at which the toxic effect on the cells reaches its halfway point. As usually defined, the IC50 is the point on the concentration scale where inhibition reaches its midpoint.

Values taken from patent publication EP4178959B1, “NITROGEN HETEROCYCLIC CYTOKININ DERIVATIVES, COMPOSITIONS CONTAINING THESE DERIVATIVES AND USE THEREOF” (Univerzita Palackého v Olomouci, priority 2020, dated 2022).
